Experimental data published in patent US20140105919A1, “SYNERGISTIC INHIBITION OF ERBB2/ERBB3 SIGNAL PATHWAYS IN THE TREATMENT OF CANCER” (Institute for Cancer Research d/b/a The Research Institute …, priority 2011, published 2014).

Assays:
Format in all cases: cell-based
BT474 cells = experiment: Cell sensitization to MM-111 and gamma-secretase inhibitor, CellTiter-Blue viability; details: BT474, 72 hrs; Compound E 1 μM, MM-111 2 μM, alone or combined; vs DMSO
Experimental: Inhibition of the Notch pathway was carried out with a compound. Breast cancer cells (BT474 cells) were plated in 96-well plates in DMEM/F12 media with 1% FBS and incubated in a humidified CO2 incubator at 37° C. for 24 hours prior to drug treatment. The media was replaced with DMEM/F12 media with 1% FBS containing DMSO, 1 μM Compound E (Santa Cruz, SC-221433), 2 μM MM-111 (Merrimack Pharmaceuticals), or combined Compound E and MM-111. Cells were incubated in the presence of drug for 72 hrs. CellTiter-Blue® (Promega) was used to measure cell viability according to the standard protocol. The total incubation time in the presence of CellTiter-Blue® was 4 hours, and fluorescence was measured using a Perkin Elmer Envision Plate Reader.

[1] = test system: Notch signaling (CBF1 reporter) in BT-474 cells; experiment: Notch-dependent activation of CBF-1 reporter (Dual-Luciferase Assay); details: MM-111 and Compound E
Experimental: BT-474 cells were co-transfected with CBF1::firefly luciferase and pRL-TK (renilla luciferase) as an internal control for transfection efficiency. Cells were then treated with MM-111, MM-111 and Compound E, or Rituximab (control antibody), and the ratio of firefly/renilla expression was measured using the Dual-Luciferase Assay (Promega) according to the manufacturer's instructions.

[2] = test system: Notch target genes in MB-361/DYT2 cells; experiment: Real time PCR of endogenous Notch target genes HES1, HES5, HEY1; details: MB361/DYT2; compared to untreated, DMSO or Rituximab
Experimental: MB-361/DYT2 cells were left untreated (NT) or treated with DMSO (vehicle for Compound E), rituximab (control antibody), Compound E, MM-111, or MM-111 and Compound E. Total RNA was extracted from cells using the RNeasy kit (Qiagen). Total RNA was reverse transcribed to cDNA, and real time PCR was performed, using ABI primer/probe sets, on cDNAs to detect relative expression of the validated Notch target genes HES1 (ABI Assay ID Hs00172878_m1), HES5 (ABI Assay ID Hs01387463_g1), or HEY1 (ABI Assay ID Hs01114113_m1).

[3] = test system: MB361/DYT2 breast cancer cells; experiment: secondary validation screen with single siGENOME siRNAs with or without MM-111, CellTiter-Blue viability; parameters: Vehicle (viability score) / Drug (viability score): scale not given here; details: for Ratio (drug:vehicle viability): single siRNA; for Drug (viability score): single siRNA and MM-111; for Vehicle (viability score): single siRNA only (vehicle)
Experimental: Subsets of targets that met criteria of being expressed in the cells and having an FDR of <5% or being expressed in the cells, having an FDR <20%, and having a known connection to ErbB signaling, were validated in a secondary screen in which MB361/DYT2 breast cancer cells were treated with siRNA molecules from the Dharmacon® siGENOME library (Dharmacon, Inc.). Parallel cells were treated with the siRNA only (vehicle) or both the siRNA and the ErbB2/ErbB3 bispecific antibody MM-111, and sensitization of the cells was measured by the CellTiter-Blue® (Promega) viability assay.

Compound | cell viability / cell killing (BT474 cells) | MM-111-induced CBF1 reporter activity [1] | expression of Notch target genes HES1, HES5, and HEY1 [2] | Ratio (drug:vehicle viability) [3] | Drug (viability score) [3] | Vehicle (viability score) [3]
C[C@H](NC(=O)Cc1cc(F)cc(F)c1)C(=O)N[C@H]1N=C(c2ccccc2)c2ccccc2N(C)C1=O [Compound E] | no effect on viability | the activity is blocked | reduced | – | – | –
CAUAAGCCCUGCAAGAAUG (listed as RNA, chemistry not given here; listed as Homo sapiens) [SEQ ID NO: 17, Dharmacon siGENOME siRNA targeting DLL1] | – | – | – | 0.823 | 0.812 | 0.987
CCAAAGGCCUGACCGUUAA (listed as RNA, chemistry not given here; listed as Homo sapiens) [SEQ ID NO: 26, Dharmacon siGENOME siRNA targeting AAMP] | – | – | – | 0.844 | 0.821 | 0.973
CCACACGGUUUAAGUCUAU (listed as RNA, chemistry not given here; listed as Homo sapiens) [SEQ ID NO: 50, Dharmacon siGENOME siRNA targeting RFNG] | – | – | – | 0.939 | 1.250 | 1.331
GAAGAUACUUGGCACUAUU (listed as RNA, chemistry not given here; listed as Homo sapiens) [SEQ ID NO: 21, Dharmacon siGENOME siRNA targeting SC4MOL] | – | – | – | 0.877 | 0.955 | 1.089
GCAGCAAGACCAAGAAAUC (listed as RNA, chemistry not given here; listed as Homo sapiens) [SEQ ID NO: 57, Dharmacon siGENOME siRNA targeting CYR61] | – | – | – | 0.856 | 0.846 | 0.988
GGGUCGCUGUGAUGAAAUU (listed as RNA, chemistry not given here; listed as Homo sapiens) [SEQ ID NO: 45, Dharmacon siGENOME siRNA targeting DCI] | – | – | – | 0.762 | 0.627 | 0.823
GGUGUUGUCUGGUCAGUAA (listed as RNA, chemistry not given here; listed as Homo sapiens) [SEQ ID NO: 19, Dharmacon siGENOME siRNA targeting NLK] | – | – | – | 0.776 | 0.991 | 0.993
GGUUGUGCCUGGAGGUGGA (listed as RNA, chemistry not given here; listed as Homo sapiens) [SEQ ID NO: 24, Dharmacon siGENOME siRNA targeting TPT1] | – | – | – | 0.845 | 0.775 | –
